Legend:
rat cardiac allografts [1] = experiment: Rat cardiac allograft study, Allograft Study 2 (Table 20); conditions: for percent of surviving grafts within a group / number of surviving grafts within each group: s.c., GG5/3 3 mg/kg, compounds 30 mg/kg;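 for all read-outs here: lewis x Brown Norway F1 hearts grafted abdominally into male Lewis rats, palpated daily, rejection meaning complete loss of heartbeat, day 0 being surgery day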
Description: Hearts from Lewis X Brown Norway F1 hybrids were transplanted to the abdominal great vessels of Lewis recipients using standard microvascular techniques. Both rat strains were male inbred rats, weighing 200-300 g. Food and water was available at all times except during surgical and dosing procedures. The day of transplantation was noted as day 0. […] Allograft survival in the rats was evaluated by daily palpation of the transplanted heart through the recipient's flank. Rejection was taken as the day of complete cessation of the graft's heart beat. Upon determination of rejection, the abdomen of the recipient was incised and retracted to confirm cessation of the heart beat in the transplanted heart. If cessation of the heart beat was not confirmed the abdomen was surgically closed, and the grafted heart was evaluated daily.
Cardiac allografts were established. Dosing of compounds began on day 0, prior to transplantation and continued through day +10. […] The vehicle control, 10% ethanol/corn oil, was administered s.c., every 12 hours, day 0 through day +10. The antibody, GG5/3 in 0.9% saline, was administered at 3 mg/kg, s.c., on day 0, +3, +7 and +10. All GG5/3 animals received twice daily s.c. injections of 0.9% saline, every 12 hours, throughout day 0 through day +10. The vehicle control, 0.9% saline, was administered daily, s.c., day 0 through day +10. All dosing solutions were formulated daily at a constant dose volume of 5 ml/kg. The site of injection was rotated at each injection through four possible sites: right and left fore flank, right and left rear flank. A total of 28 allografts, amongst 5 groups, were evaluated in the study. Group 1, consisted of 6 animals treated with the monoclonal antibody, GG5/3. […] Allograft survival was evaluated by daily palpation of the transplanted heart through the recipient's flank. Rejection was taken as the day of complete cessation of graft's heart beat. Upon determination of rejection, the abdomen of the recipient was incised to confirm cessation of the heart beat in the transplanted heart. If cessation of the graft's heart beat was not confirmed the abdomen was surgically closed, and the graft was evaluated daily.

rat cardiac allografts [2] = experiment: Rat cardiac allograft study, Allograft Study 4 (Table 22); conditions: s.c., GG5/3 3 mg/kg, compounds 30 mg/kg;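 note: heterotopic abdominal heart transplants from Lewis × Brown Norway F1 donors into male Lewis rats, graft beating checked daily by flank palpation, rejection defined as complete stop of heartbeat, transplant day 0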
Description: Hearts from Lewis X Brown Norway F1 hybrids were transplanted to the abdominal great vessels of Lewis recipients using standard microvascular techniques. Both rat strains were male inbred rats, weighing 200-300 g. Food and water was available at all times except during surgical and dosing procedures. The day of transplantation was noted as day 0. Twelve hours following the last dose approximately 1 ml of blood was collected into lithium/heparin anti-coagulant tubes. If any graft was rejected prior to the last day of dosing, blood samples were taken 12 hours after dosing on the day that graft rejection was noted. All blood samples were centrifuged at 3000 rpm for 10 minutes and the plasma was harvested, frozen on dry ice and stored frozen at −20 C prior to analysis. Allograft survival in the rats was evaluated by daily palpation of the transplanted heart through the recipient's flank. Rejection was taken as the day of complete cessation of the graft's heart beat. Upon determination of rejection, the abdomen of the recipient was incised and retracted to confirm cessation of the heart beat in the transplanted heart. If cessation of the heart beat was not confirmed the abdomen was surgically closed, and the grafted heart was evaluated daily.
Cardiac allografts were established. Dosing of compounds began on day −2, 2 days prior to transplantation and continued through day +10. […] The vehicle control, 0.9% saline, pH adjusted to a value of 5, to match the dosing solution containing the N-[N-(3-pyridinesulfonyl)-L-3,3-dimethyl-4-thiaprolyl]-0-[1-methylpiperazin-4-ylcarbonyl]-L-tyrosine isopropyl ester, was administered via the same route, i.e. every 12 hours, day −2 through day +10. The antibody, GG5/3 in 0.9% saline, was administered at 3 mg/kg, s.c., on day 0, +3, +7 and +10. All GG5/3 animals received twice daily s.c. injections of 0.9% saline, every 12 hours, from day −2 through day +10. The vehicle control, 0.9% saline, was administered daily, s.c., day 0 through day +10. All dosing solutions were formulated daily at a constant dose volume of 5 ml/kg. The site of injection was rotated at each injection through four possible sites: right and left fore flank, right and left rear flank. A total of 21 allografts, amongst 5 groups, were evaluated in the study. […] Two animals within the 0.9% saline group received saline adjusted to a pH a value of 5. (The pH value of the N-[N-(3-pyridinesulfonyl)-L-3,3-dimethyl-4-thiaprolyl]-0-[1-methylpiperazin-4-ylcarbonyl]-L-tyrosine isopropyl ester dosing solution.) The remaining two animals received saline of pH 7. Group 2 consisted of 6 animals treated with the monoclonal antibody, GG5/3. […] Twelve hours following the last dose approximately 1 ml of blood was collected into lithium/heparin anti-coagulant tubes. If any graft was rejected prior to the last day of dosing, blood samples were taken 12 hours after dosing on the day that graft rejection was noted. All samples were centrifuged at 3000 rpm for 10 minutes and the plasma was harvested, frozen on dry ice and stored frozen at −20 C prior to dispatch for analysis. Allograft survival in the rats was evaluated by daily palpation of the transplanted heart through the recipient's flank. Rejection was taken as the day of complete cessation of graft's heart beat. Upon determination of rejection, the abdomen of the recipient was incised to confirm cessation of the heart beat in the transplanted heart. If cessation of the heart beat was not confirmed the abdomen was surgically closed, and the graft was evaluated daily.

## CC(C)OC(=O)[C@H](Cc1ccc(OC(=O)N(C)C)cc1)NC(=O)[C@H]1N(S(=O)(=O)c2cnn(C)c2)CSC1(C)C
Rat cardiac allografts [1]; Day 0
  percent of surviving grafts within a group: 100%
Rat cardiac allografts [1]; Day 1
  percent of surviving grafts within a group: 100%
Rat cardiac allografts [1]; Day 2
  percent of surviving grafts within a group: 100%
Rat cardiac allografts [1]; Day 3
  percent of surviving grafts within a group: 100%
Rat cardiac allografts [1]; Day 4
  percent of surviving grafts within a group: 100%
Rat cardiac allografts [1]; Day 5
  percent of surviving grafts within a group: 100%
Rat cardiac allografts [1]; Day 6
  percent of surviving grafts within a group: 100%
Rat cardiac allografts [1]; Day 7
  percent of surviving grafts within a group: 100%
Rat cardiac allografts [1]; Day 8
  percent of surviving grafts within a group: 100%
Rat cardiac allografts [1]; Day 9
  percent of surviving grafts within a group: 100%
Rat cardiac allografts [1]; Day 10
  percent of surviving grafts within a group: 83%
Rat cardiac allografts [1]; Day 11
  percent of surviving grafts within a group: 50%
Rat cardiac allografts [1]; Day 12
  percent of surviving grafts within a group: 50%
Rat cardiac allografts [1]; Day 13
  percent of surviving grafts within a group: 33%
Rat cardiac allografts [1]; Day 14
  percent of surviving grafts within a group: 16%
Rat cardiac allografts [1]; Day 15
  percent of surviving grafts within a group: 16%
Rat cardiac allografts [1]; Day 16
  percent of surviving grafts within a group: 0%

## CC(C)OC(=O)[C@H](Cc1ccc(OC(=O)N2CCN(C)CC2)cc1)NC(=O)[C@H]1N(S(=O)(=O)c2cccnc2)CSC1(C)C
Rat cardiac allografts [2]; day 0
  percent of surviving grafts within a group: 100%
Rat cardiac allografts [2]; day 1
  percent of surviving grafts within a group: 100%
Rat cardiac allografts [2]; day 2
  percent of surviving grafts within a group: 100%
Rat cardiac allografts [2]; day 3
  percent of surviving grafts within a group: 100%
Rat cardiac allografts [2]; day 4
  percent of surviving grafts within a group: 100%
Rat cardiac allografts [2]; day 5
  percent of surviving grafts within a group: 100%
Rat cardiac allografts [2]; day 6
  percent of surviving grafts within a group: 100%
Rat cardiac allografts [2]; day 7
  percent of surviving grafts within a group: 100%
Rat cardiac allografts [2]; day 8
  percent of surviving grafts within a group: 100%
Rat cardiac allografts [2]; day 9
  percent of surviving grafts within a group: 83%
Rat cardiac allografts [2]; day 10
  percent of surviving grafts within a group: 66%
Rat cardiac allografts [2]; day 11
  percent of surviving grafts within a group: 66%
Rat cardiac allografts [2]; day 12
  percent of surviving grafts within a group: 66%
Rat cardiac allografts [2]; day 13
  percent of surviving grafts within a group: 66%
Rat cardiac allografts [2]; day 14
  percent of surviving grafts within a group: 66%
Rat cardiac allografts [2]; day 15
  percent of surviving grafts within a group: 66%
Rat cardiac allografts [2]; day 16
  percent of surviving grafts within a group: 50%
Rat cardiac allografts [2]; day 17
  percent of surviving grafts within a group: 50%
Rat cardiac allografts [2]; day 18
  percent of surviving grafts within a group: 50%
Rat cardiac allografts [2]; day 19
  percent of surviving grafts within a group: 50%
Rat cardiac allografts [2]; day 20
  number of surviving grafts: 2
  percent of surviving grafts within a group: 33%
Rat cardiac allografts [2]; day 21
  number of surviving grafts: 2
  percent of surviving grafts within a group: 33%
Rat cardiac allografts [2]; day 22
  number of surviving grafts: 2
  percent of surviving grafts within a group: 33%
Rat cardiac allografts [2]; day 23
  number of surviving grafts: 2
  percent of surviving grafts within a group: 33%
Rat cardiac allografts [2]; day 24
  number of surviving grafts: 2
  percent of surviving grafts within a group: 33%
Rat cardiac allografts [2]; day 25
  number of surviving grafts: 2
  percent of surviving grafts within a group: 33%
Rat cardiac allografts [2]; day 26
  number of surviving grafts: 2
  percent of surviving grafts within a group: 33%
Rat cardiac allografts [2]; day 27
  number of surviving grafts: 2
  percent of surviving grafts within a group: 33%
Rat cardiac allografts [2]; day 28
  number of surviving grafts: 2
  percent of surviving grafts within a group: 33%
Rat cardiac allografts [2]; day 29
  number of surviving grafts: 2
  percent of surviving grafts within a group: 33%
Rat cardiac allografts [2]; day 30
  number of surviving grafts: 2
  percent of surviving grafts within a group: 33%
Rat cardiac allografts [2]; day 31
  number of surviving grafts: 1
  percent of surviving grafts within a group: 16%
Rat cardiac allografts [2]; day 32
  number of surviving grafts: 1
  percent of surviving grafts within a group: 16%
Rat cardiac allografts [2]; day 33
  number of surviving grafts: 1
  percent of surviving grafts within a group: 16%
Rat cardiac allografts [2]; day 34
  number of surviving grafts: 1
  percent of surviving grafts within a group: 16%
Rat cardiac allografts [2]; day 35
  number of surviving grafts: 1
  percent of surviving grafts within a group: 16%
Rat cardiac allografts [2]; day 36
  number of surviving grafts: 1
  percent of surviving grafts within a group: 16%
Rat cardiac allografts [2]; day 37
  number of surviving grafts: 1
  percent of surviving grafts within a group: 16%
Rat cardiac allografts [2]; day 38
  number of surviving grafts: 1
  percent of surviving grafts within a group: 16%
Rat cardiac allografts [2]; day 39
  number of surviving grafts: 1
  percent of surviving grafts within a group: 16%
Rat cardiac allografts [2]; day 40
  number of surviving grafts: 1
  percent of surviving grafts within a group: 16%
Rat cardiac allografts [2]; day 41
  number of surviving grafts: 1
  percent of surviving grafts within a group: 16%
Rat cardiac allografts [2]; day 42
  number of surviving grafts: 0
  percent of surviving grafts within a group: 0%

## CC(C)OC(=O)[C@H](Cc1ccc(OC(=O)N(C)C)cc1)NC(=O)[C@H]1N(S(=O)(=O)c2cccnc2)CSC1(C)C [listing 1 of 2 here]
Rat cardiac allografts [1]; Day 0
  number of surviving grafts within each group: 6
Rat cardiac allografts [1]; Day 1
  number of surviving grafts within each group: 6
Rat cardiac allografts [1]; Day 2
  number of surviving grafts within each group: 6
Rat cardiac allografts [1]; Day 3
  number of surviving grafts within each group: 6
Rat cardiac allografts [1]; Day 4
  number of surviving grafts within each group: 6
Rat cardiac allografts [1]; Day 5
  number of surviving grafts within each group: 6
Rat cardiac allografts [1]; Day 6
  number of surviving grafts within each group: 6
Rat cardiac allografts [1]; Day 7
  number of surviving grafts within each group: 6
Rat cardiac allografts [1]; Day 8
  number of surviving grafts within each group: 4
Rat cardiac allografts [1]; Day 9
  number of surviving grafts within each group: 2
Rat cardiac allografts [1]; Day 10
  number of surviving grafts within each group: 2
Rat cardiac allografts [1]; Day 11
  number of surviving grafts within each group: 1
Rat cardiac allografts [1]; Day 12
  number of surviving grafts within each group: 0
Rat cardiac allografts [1]; Day 13
  number of surviving grafts within each group: 0
Rat cardiac allografts [1]; Day 14
  number of surviving grafts within each group: 0
Rat cardiac allografts [1]; Day 15
  number of surviving grafts within each group: 0
Rat cardiac allografts [1]; Day 16
  number of surviving grafts within each group: 0

## CC(C)OC(=O)[C@H](Cc1ccc(OC(=O)N(C)C)cc1)NC(=O)[C@H]1N(S(=O)(=O)c2cccnc2)CSC1(C)C [listing 2 of 2 here]
Rat cardiac allografts [1]; Day 0
  percent of surviving grafts within a group: 100%
Rat cardiac allografts [1]; Day 1
  percent of surviving grafts within a group: 100%
Rat cardiac allografts [1]; Day 2
  percent of surviving grafts within a group: 100%
Rat cardiac allografts [1]; Day 3
  percent of surviving grafts within a group: 100%
Rat cardiac allografts [1]; Day 4
  percent of surviving grafts within a group: 100%
Rat cardiac allografts [1]; Day 5
  percent of surviving grafts within a group: 100%
Rat cardiac allografts [1]; Day 6
  percent of surviving grafts within a group: 100%
Rat cardiac allografts [1]; Day 7
  percent of surviving grafts within a group: 100%
Rat cardiac allografts [1]; Day 8
  percent of surviving grafts within a group: 66%
Rat cardiac allografts [1]; Day 9
  percent of surviving grafts within a group: 50%
Rat cardiac allografts [1]; Day 10
  percent of surviving grafts within a group: 50%
Rat cardiac allografts [1]; Day 11
  percent of surviving grafts within a group: 16%
Rat cardiac allografts [1]; Day 12
  percent of surviving grafts within a group: 0%
Rat cardiac allografts [1]; Day 13
  percent of surviving grafts within a group: 0%
Rat cardiac allografts [1]; Day 14
  percent of surviving grafts within a group: 0%
Rat cardiac allografts [1]; Day 15
  percent of surviving grafts within a group: 0%
Rat cardiac allografts [1]; Day 16
  percent of surviving grafts within a group: 0%

## CC(C)OC(=O)[C@H](Cc1ccc(OC(=O)N(C)C)cc1)NC(=O)[C@H]1N(S(=O)(=O)c2cccnc2)CSC1(C)C [Example 173]
Rat cardiac allografts [1]; 30 mg/kg s.c. every 12 h, day 0 through day +10
  day by which all grafts rejected: ≤ 12 days
Rat cardiac allografts [1]; compounds 30 mg/kg s.c. every 12 h, GG5/3 3 mg/kg s.c. day 0, +3, +7, +10
  graft survival (in words): prolonged graft survival for a short period

Source: patent publication US20060004019A1, “Steroid sparing agents and methods of using same” (priority 2004, published 2006)
